Test results reported in patent US10428080B2, “TBK/IKK inhibitor compounds and uses thereof” (Merck Patent GmbH, priority 2015, dated 2019).
Counter-ions that a name gives are not always drawn. Like-named read-outs stand apart in the source and are kept apart here.

Assays:
TBK1 = biological target: T1, TBK1 (Homo sapiens, UniProt Q9UHD2); test: TBK Biochemical Assay; conditions: read-out: TBK1 IC50
T1 sequence (Q9UHD2 1-729): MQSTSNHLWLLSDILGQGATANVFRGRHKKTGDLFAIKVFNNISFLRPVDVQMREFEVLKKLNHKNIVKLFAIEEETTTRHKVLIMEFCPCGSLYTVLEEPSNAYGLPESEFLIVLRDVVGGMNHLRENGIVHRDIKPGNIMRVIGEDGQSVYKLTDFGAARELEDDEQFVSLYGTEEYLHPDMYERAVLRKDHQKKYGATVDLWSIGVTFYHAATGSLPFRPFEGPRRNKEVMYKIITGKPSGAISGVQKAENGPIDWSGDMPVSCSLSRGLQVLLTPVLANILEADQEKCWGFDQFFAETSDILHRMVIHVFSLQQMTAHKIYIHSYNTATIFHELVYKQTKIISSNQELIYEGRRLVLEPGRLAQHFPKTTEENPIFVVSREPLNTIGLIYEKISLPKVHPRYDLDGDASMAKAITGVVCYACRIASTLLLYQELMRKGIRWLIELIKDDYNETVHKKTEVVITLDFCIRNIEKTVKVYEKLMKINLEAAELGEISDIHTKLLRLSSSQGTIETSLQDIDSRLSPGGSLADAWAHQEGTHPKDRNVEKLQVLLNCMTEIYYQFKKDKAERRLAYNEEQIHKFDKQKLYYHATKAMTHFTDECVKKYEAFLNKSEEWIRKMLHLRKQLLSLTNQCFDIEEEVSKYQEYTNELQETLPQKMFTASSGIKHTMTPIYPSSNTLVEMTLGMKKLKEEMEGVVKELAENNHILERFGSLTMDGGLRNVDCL
Summary of the method: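 Caliper LabChip mobility-shift readout of substrate and product after 90 min of TBK1 reaction at 25° C and stop-buffer addition. Compounds tested in 1:4 serial dilution over 10 points from 30 uM final at 1% DMSO; staurosporine 10 uM final defines full inhibition.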

IKKε = biological target: T2, IKKε (Homo sapiens, UniProt Q14164); test: IKKe Biochemical Assay; conditions: read-out: IKKε IC50
T2 sequence (Q14164 1-716): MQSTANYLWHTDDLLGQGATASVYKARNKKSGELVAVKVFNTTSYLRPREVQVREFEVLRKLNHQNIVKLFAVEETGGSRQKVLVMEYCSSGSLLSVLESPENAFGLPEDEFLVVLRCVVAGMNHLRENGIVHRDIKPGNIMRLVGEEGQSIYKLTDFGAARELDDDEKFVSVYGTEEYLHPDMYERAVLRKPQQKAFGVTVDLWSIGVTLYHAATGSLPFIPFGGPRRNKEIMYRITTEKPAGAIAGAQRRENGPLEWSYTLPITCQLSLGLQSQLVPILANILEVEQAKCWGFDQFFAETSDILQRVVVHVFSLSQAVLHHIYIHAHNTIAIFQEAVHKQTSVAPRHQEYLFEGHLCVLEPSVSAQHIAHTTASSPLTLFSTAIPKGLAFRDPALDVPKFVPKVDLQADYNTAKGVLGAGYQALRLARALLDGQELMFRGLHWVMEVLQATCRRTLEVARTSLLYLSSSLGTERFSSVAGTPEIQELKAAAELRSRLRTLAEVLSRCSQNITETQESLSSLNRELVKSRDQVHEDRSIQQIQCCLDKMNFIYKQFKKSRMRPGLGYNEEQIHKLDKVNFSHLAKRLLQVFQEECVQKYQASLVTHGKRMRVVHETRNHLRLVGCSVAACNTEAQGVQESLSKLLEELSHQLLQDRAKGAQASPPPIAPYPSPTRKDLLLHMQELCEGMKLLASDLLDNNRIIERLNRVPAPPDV
Summary of the method: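 Activity was measured as mobility-shift separation of phosphorylated from unphosphorylated substrate on a LabChip EZ Reader. Compound was titrated from 30 uM final in 10 points, 1:4 steps, with 1% DMSO, and enzyme plus substrate reacted 90 min at 25° C before stop buffer. Control wells held 10 uM staurosporine.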

[1] = system: phosphorylation of the IRF-3 protein in MDA-MB-468 cells; test: pIRF3 immunocytochemistry cell based assay
Summary of the method: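 After 2 h stimulation with Poly(I:C) (10 ug/ml), following 1 h compound pre-treatment (10-point, 3-fold dilution, top 10 uM), MDA-MB-468 cells were fixed and stained with anti-pIRF3 antibody. pIRF3 fluorescence was normalized to PI staining or cell count on an Acumen cytometer. IC50 curves were derived from this.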

[2] = Homo sapiens, MDA-MB-468 cells, Poly(I:C) stimulation, read-out: pIRF3 IC50
[3] = MDA-MB-468 cells, Poly(I:C) stimulation, read-out: pIRF3 IC50
[4] = Homo sapiens, MDA-MB-468, read-out: pIRF3 IC50

IC50 (TBK1) [nM]	IC50 (IKKε) [nM]	IC50 [1, 2] [nM]	SMILES	IC50 [1, 3] [nM]	IC50 [1, 4] [nM]
< 100	< 100	100 to 1000	COc1cc(C(=O)N(C)C)ccc1-c1cc2nccc(-c3ccc(OCC4CCOC4)c(C#N)c3)c2o1 (stereo not drawn) [Compound 93, 4-{7-[3-Cyano-4-(tetrahydro-furan-3-ylmethoxy)-phenyl]-furo[3,2-b]pyridin-2-yl}-3-methoxy-N,N-dimethyl-benzamide]	–	–
< 100	< 100	–	COc1cc(C(=O)N2CCCCC2)ncc1-c1cc2nccc(-c3ccc(N4CC[C@@H](F)C4)c(C#N)c3)c2o1 (stereo in doubt) [Compound 385]	< 100	–
100 to 1000	100 to 1000	100 to 1000	CN(CCO)C(=O)c1ccc(-c2cc3ncc(F)c(-c4ccc(NC5CCOCC5)c(C#N)c4)c3o2)c(F)c1 [Compound 303, 4-(7-[3-cyano-4-[(oxan-4-yl)amino]phenyl]-6-fluorofuro[3,2-b]pyridin-2-yl)-3-fluoro-N-(2-hydroxyethyl)-N-methylbenzamide]	–	–
< 100	< 100	< 100	COc1cc(C(=O)NC2(C)CCCN(C)C2)ccc1-c1cc2nccc(-c3ccc(OC4CCOCC4)c(C#N)c3)c2o1 (stereo not drawn) [Compound 367, 4-[7-[3-cyano-4-(oxan-4-yloxy)phenyl]furo[3,2-b]pyridin-2-yl]-N-(1,3-dimethylpiperidin-3-yl)-3-methoxybenzamide]	–	–
< 100	< 100	100 to 1000	COc1cc(C(=O)N2CC(O)C2)ccc1-c1cc2nccc(-c3ccc(N4CC[C@@H](F)C4)c(C#N)c3)c2o1 [Compound 497, 2-((R)-3-Fluoro-pyrrolidin-1-yl)-5-{2-[4-(3-hydroxy-azetidine-1-carbonyl)-2-methoxy-phenyl]-furo[3,2-b]pyridin-7-yl}-benzonitrile]	–	–
< 100	< 100	100 to 1000	COc1cc(C(=O)NCCN2CCC2)ccc1-c1cc2nccc(-c3ccc(OC4CCOCC4)c(C#N)c3)c2o1 [Compound 477, N-(2-Azetidin-1-yl-ethyl)-4-{7-[3-cyano-4-(tetrahydro-pyran-4-yloxy)-phenyl]-furo[3,2-b]pyridin-2-yl}-3-methoxy-benzamide]	–	–
100 to 1000	100 to 1000	1000 to 5000	CN(C)C(=O)c1ccc(-c2cc3nccc(-c4ccc(OC5CCOC(C)(C)C5)c(C#N)c4)c3o2)cc1 (stereo not drawn) [Compound 170, 4-{7-[3-Cyano-4-(2,2-dimethyl-tetrahydro-pyran-4-yloxy)-phenyl]-furo[3,2-b]pyridin-2-yl}-N,N-dimethyl-benzamide]	–	–
< 100	< 100	< 100	COc1cc(C(=O)N2CC[C@@H](N(C)C)C2)cnc1-c1cc2nccc(-c3ccc(N4CC[C@H](F)C4)c(C#N)c3)c2o1 [Compound 455, 5-[2-(5-[[(3R)-3-(dimethylamino)pyrrolidin-1-yl]carbonyl]-3-methoxypyridin-2-yl) (S)-furo[3,2-b]pyridin-7-yl]-2-(3-fluoropyrrolidin-1-yl)benzonitrile]	–	–
< 100	< 100	< 100	COc1cc(C(=O)N2CC3NCCC32)ccc1-c1cc2nccc(-c3ccc(OC4CCOCC4)c(C#N)c3)c2o1 (stereo not drawn) [Compound 55, 5-{2-[4-(2,6-Diaza-bicyclo[3.2.0]heptane-6-carbonyl)-2-methoxy-phenyl]-furo[3,2-b]pyridin-7-yl}-2-(tetrahydro-pyran-4-yloxy)-benzonitrile hydrochloride]	–	–
< 100	< 100	100 to 1000	COc1cc(C(=O)N2CC[C@@H](N(C)C)C2)cnc1-c1cc2nccc(-c3ccc(N4CCC(F)C4)c(C#N)c3)c2o1 (stereo partly drawn) [Compound 454, 5-[2-(5-[[(3R)-3-(dimethylamino)pyrrolidin-1-yl]carbonyl]-3-methoxypyridin-2-yl)furo[3,2-b]pyridin-7-yl]-2-(3-fluoropyrrolidin-1-yl)benzonitrile]	–	–
< 100	< 100	100 to 1000	COc1cc(C(=O)NCC2(F)COC2)ccc1-c1cc2nccc(-c3ccc(OC4CCOCC4)c(C#N)c3)c2o1 [Compound 69, 4-{7-[3-Cyano-4-(tetrahydro-pyran-4-yloxy)-phenyl]-furo[3,2-b]pyridin-2-yl}-N-(3-fluoro-oxetan-3-ylmethyl)-3-methoxy-benzamide]	–	–
< 100	< 100	< 100	COc1cc(C(=O)N2CCN(C)CC2)ncc1-c1cc2nccc(-c3ccc(N4CC[C@H](F)C4)c(C#N)c3)c2o1 [Compound 463, 2-((S)-3-Fluoro-pyrrolidin-1-yl)-5-{2-[4-methoxy-6-(4-methyl-piperazine-1-carbonyl)-pyridin-3-yl]-furo[3,2-b]pyridin-7-yl}-benzonitrile]	–	–
< 100	< 100	100 to 1000	COc1cc(C(=O)N2CC[C@@H](F)C2)ccc1-c1cc2nccc(-c3ccc(OC4CCOCC4)c(C#N)c3)c2o1 [Compound 17, 5-{2-[4-((R)-3-Fluoro-pyrrolidine-1-carbonyl)-2-methoxy-phenyl]-furo[3,2-b]pyridin-7-yl}-2-(tetrahydro-pyran-4-yloxy)-benzonitrile]	–	–
< 100	< 100	100 to 1000	COc1cc(C(=O)NN)ccc1-c1cc2nccc(-c3ccc(OC4CCOCC4)c(C#N)c3)c2o1 [Compound 110, 4-{7-[3-Cyano-4-(tetrahydro-pyran-4-yloxy)-phenyl]-furo[3,2-b]pyridin-2-yl}-3-methoxy-benzoic acid hydrazide]	–	–

SMILES	IC50 (TBK1) [nM]	IC50 (IKKε) [nM]	IC50 [1, 2] [nM]	IC50 [1, 3] [nM]	IC50 [1, 4] [nM]
COc1cc(C(=O)N(C)C2CN3CCC2CC3)ccc1-c1cc2nccc(-c3ccc(OC4CCOCC4)c(C#N)c3)c2o1 (stereo not drawn) [Compound 472, N-(1-Aza-bicyclo[2.2.2]oct-3-yl)-4-{7-[3-cyano-4-(tetrahydro-pyran-4-yloxy)-phenyl]-furo[3,2-b]pyridin-2-yl}-3-methoxy-N-methyl-benzamide]	< 100	< 100	< 100	–	–
COc1cc(C(=O)N2CCC2)cnc1-c1cc2nccc(-c3ccc(OC4CCOCC4)c(C#N)c3)c2o1 [Compound 415, 5-(2-[5-[(azetidin-1-yl)carbonyl]-3-methoxypyridin-2-yl]furo[3,2-b]pyridin-7-yl)-2-(oxan-4-yloxy)benzonitrile]	< 100	< 100	–	–	100 to 1000
COc1cc(-c2cc3nccc(-c4ccc(OC5CCOCC5)c(C#N)c4)c3o2)ncc1C(=O)N(C)C [Compound 391, 6-[7-[3-cyano-4-(oxan-4-yloxy)phenyl]furo[3,2-b]pyridin-2-yl]-4-methoxy-N,N-dimethylpyridine-3-carboxamide]	100 to 1000	< 100	–	–	1000 to 5000
COc1cc(C(=O)NC2CN3CCC2CC3)cnc1-c1cc2nccc(-c3ccc(N4CC[C@H](F)C4)c(C#N)c3)c2o1 (stereo partly drawn) [Compound 441, N—(R)-1-Aza-bicyclo[2.20.2]oct-3-yl-6-{7-[3-cyano-4-((S)-3-fluoro-pyrrolidin-1-yl)-phenyl]-furo[3,2-b]pyridin-2-yl}-5-methoxy-nicotinamide]	< 100	< 100	–	100 to 1000	–
